Test results reported in ChEMBL document CHEMBL1201862, “PubChem BioAssay data set” (2004).
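Five compound concentrations were applied to cells in 96-well plates for 48 hours; endpoints were derived by simple linear interpolation of the resulting dose-response curve. At the GI50, growth is halved.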 Active and inactive are the calls of the source. Rule as the data show it: active = GI50 up to about 1.1 µM and inactive = higher. Numbered stars: 1 amine (or outer) side, 2 acyl side, 3 side chain; on linkers, the order of the positions; unused ones are H or OH. Bridge positions count the residues as written; N and C are the ends. Square brackets hold non-standard residues; d marks the D form. Peptide text beside a SMILES is read from it. I, II: the chains in the order shown. Actinocin(9to1) = Cc1c2oc3c(C)ccc(C(=O)[*:1])c3nc-2c(C(=O)[*:2])c(N)c1=O; X48 = O=C1CC(C(=O)[*:2])N([*:1])C1; NMeV = CN[CH](C(=O)O)C(C)C; Sar = CNCC(=O)O

What was measured:
Test in all cases: growth of human tumour cells (NCI), 48 h
[1] = tested on: NCI-H23
[2] = tested on: DU-145
[3] = tested on: SNB-19
[4] = tested on: U-251
[5] = tested on: M14
[6] = tested on: SF-268
[7] = tested on: K562
[8] = tested on: CCRF-CEM
[9] = tested on: SF-295
[10] = tested on: OVCAR-3
[11] = tested on: A498
[12] = tested on: A549
[13] = tested on: SW-620
[14] = tested on: Malme-3M
[15] = tested on: EKVX
[16] = tested on: HT-29
[17] = tested on: HCT-116
[18] = tested on: HCC 2998
[19] = tested on: COLO 205
[20] = tested on: HCT-15
[21] = tested on: MCF7
[22] = tested on: ACHN
[23] = tested on: NCI/ADR-RES
[24] = tested on: TK-10
[25] = tested on: T47D
[26] = tested on: HL-60
[27] = tested on: SR
[28] = tested on: IGROV-1
[29] = tested on: HOP-92
[30] = tested on: SF-539
[31] = tested on: SK-MEL-5
[32] = tested on: SK-OV-3
[33] = tested on: NCI-H226
[34] = tested on: 786-0
[35] = tested on: RXF 393
[36] = tested on: LOX IMVI
[37] = tested on: UACC-257
[38] = tested on: NCI-H522
[39] = tested on: MDA-MB-435
[40] = tested on: MOLT-4
[41] = tested on: KM12
[42] = tested on: OVCAR-5
[43] = tested on: SNB-75
[44] = tested on: MDA-MB-231
[45] = tested on: UACC-62
[46] = tested on: HOP-62
[47] = tested on: SK-MEL-2
[48] = tested on: OVCAR-4
[49] = tested on: CAKI-1
[50] = tested on: NCI-H460
[51] = tested on: SK-MEL-28
[52] = tested on: UO-31
[53] = tested on: MDA-N
[54] = tested on: PC-3
[55] = tested on: SN12C
[56] = tested on: OVCAR-8
[57] = tested on: Hs-578T
[58] = tested on: RPMI-8226

C=CC1CN2CCC1CC2C(O)c1ccnc2ccc(OC)cc12 (centres undefined)
GI50 [1]: 89.1 µM (inactive)

c1ccc(P2c3ccccc3Nc3ccccc32)cc1
GI50 [2]: 78 µM (inactive)
GI50 [3]: 59 µM (inactive)
GI50 [4]: 56.1 µM (inactive)
GI50 [5]: 66.2 µM (inactive)
GI50 [6]: 71.6 µM (inactive)
GI50 [7]: 44.1 µM (inactive)
GI50 [8]: 23.6 µM (inactive)
GI50 [9]: 59.7 µM (inactive)
GI50 [10]: 16.3 µM (inactive)
GI50 [11]: 27.1 µM (inactive)
GI50 [12]: 42.5 µM (inactive)
GI50 [13]: > 100 µM (inactive)
GI50 [14]: 49.3 µM (inactive)
GI50 [15]: 34 µM (inactive)
GI50 [16]: 49 µM (inactive)
GI50 [17]: 38.6 µM (inactive)
GI50 [1]: 72.9 µM (inactive)
GI50 [18]: > 100 µM (inactive)
GI50 [19]: 32.7 µM (inactive)
GI50 [20]: > 100 µM
GI50 [21]: 72.1 µM (inactive)
GI50 [22]: 86.5 µM (inactive)
GI50 [23]: > 100 µM (inactive)
GI50 [24]: > 100 µM (inactive)
GI50 [25]: 55.2 µM (inactive)
GI50 [26]: 29.1 µM (inactive)
GI50 [27]: 23.2 µM (inactive)
GI50 [28]: 71 µM (inactive)
GI50 [29]: 30.1 µM (inactive)
GI50 [30]: 59.8 µM (inactive)
GI50 [31]: 30.8 µM (inactive)
GI50 [32]: > 100 µM (inactive)
GI50 [33]: 99.5 µM (inactive)
GI50 [34]: > 100 µM (inactive)
GI50 [35]: 29.5 µM (inactive)
GI50 [36]: 45.8 µM (inactive)
GI50 [37]: 43.1 µM (inactive)
GI50 [38]: 62.5 µM (inactive)
GI50 [39]: > 100 µM (inactive)
GI50 [40]: 24.8 µM (inactive)
GI50 [41]: 37.2 µM (inactive)
GI50 [42]: > 100 µM (inactive)
GI50 [43]: 11.4 µM (inactive)
GI50 [44]: 35.3 µM (inactive)
GI50 [45]: 37.8 µM (inactive)
GI50 [46]: 64.9 µM (inactive)
GI50 [47]: 36 µM (inactive)
GI50 [48]: 38.8 µM (inactive)
GI50 [49]: 23.5 µM (inactive)
GI50 [50]: 62.1 µM (inactive)
GI50 [51]: > 100 µM (inactive)
GI50 [52]: > 100 µM (inactive)
GI50 [53]: 91 µM (inactive)
GI50 [54]: 30 µM (inactive)
GI50 [55]: 41.1 µM (inactive)
GI50 [56]: > 100 µM (inactive)

CC(=O)c1ccc(-c2oc(-c3ccccc3)cc2-c2ccc3c(c2)OCO3)s1
GI50 [2]: > 100 µM (inactive)
GI50 [4]: > 100 µM (inactive)
GI50 [5]: 65.3 µM (inactive)
GI50 [6]: 34.4 µM (inactive)
GI50 [7]: > 100 µM (inactive)
GI50 [8]: 0.0313 µM (active)
GI50 [9]: > 100 µM (inactive)
GI50 [10]: > 100 µM (inactive)
GI50 [11]: > 100 µM (inactive)
GI50 [13]: > 100 µM (inactive)
GI50 [15]: > 100 µM (inactive)
GI50 [57]: > 100 µM (inactive)
GI50 [16]: > 100 µM (inactive)
GI50 [17]: > 100 µM (inactive)
GI50 [1]: 19.1 µM (inactive)
GI50 [18]: > 100 µM (inactive)
GI50 [19]: > 100 µM (inactive)
GI50 [21]: 59 µM (inactive)
GI50 [22]: > 100 µM (inactive)
GI50 [23]: 49.7 µM (inactive)
GI50 [24]: > 100 µM (inactive)
GI50 [25]: 17 µM (inactive)
GI50 [26]: 1.02 µM (active)
GI50 [27]: > 100 µM (inactive)
GI50 [28]: > 100 µM (inactive)
GI50 [29]: > 100 µM (inactive)
GI50 [30]: > 100 µM (inactive)
GI50 [31]: > 100 µM (inactive)
GI50 [32]: > 100 µM (inactive)
GI50 [33]: > 100 µM (inactive)
GI50 [34]: > 100 µM (inactive)
GI50 [58]: > 100 µM (inactive)
GI50 [35]: > 100 µM (inactive)
GI50 [37]: > 100 µM (inactive)
GI50 [39]: 3.07 µM (inactive)
GI50 [40]: > 100 µM (inactive)
GI50 [42]: > 100 µM (inactive)
GI50 [43]: > 100 µM (inactive)
GI50 [45]: > 100 µM (inactive)
GI50 [46]: > 100 µM (inactive)
GI50 [49]: 2.42 µM (inactive)
GI50 [50]: 68.5 µM (inactive)
GI50 [52]: > 100 µM (inactive)
GI50 [55]: > 100 µM (inactive)
GI50 [56]: > 100 µM (inactive)

Cc1c2oc3c(C)ccc(C(=O)NC4C(=O)NC(C(C)C)C(=O)N5CC(=O)CC5C(=O)N(C)CC(=O)N(C)C(C(C)C)C(=O)OC4C)c3nc-2c(C(=O)NC2C(=O)NC(C(C)C)C(=O)N3CC(=O)CC3C(=O)N(C)CC(=O)N(C)C(C(C)C)C(=O)OC2C)c(N)c1=O (centres undefined) (I: TV[X48][Sar][NMeV] / II: TV[X48][Sar][NMeV]; ester I:1-I:C, II:1-II:C; linker I:N-II:N via Actinocin(9to1); configuration not given here)
GI50 [2]: > 1 µM (active)
GI50 [3]: > 1 µM (active)
GI50 [4]: > 1 µM (active)
GI50 [5]: > 1 µM (active)
GI50 [7]: > 1 µM (active)
GI50 [8]: > 1 µM (active)
GI50 [9]: > 1 µM (active)
GI50 [10]: > 1 µM (active)
GI50 [11]: > 1 µM (active)
GI50 [12]: 0.253 µM (active)
GI50 [13]: > 1 µM (active)
GI50 [14]: > 1 µM (active)
GI50 [15]: > 1 µM (active)
GI50 [16]: > 1 µM (active)
GI50 [17]: > 1 µM (active)
GI50 [1]: > 1 µM (active)
GI50 [18]: > 1 µM (active)
GI50 [19]: > 1 µM (active)
GI50 [20]: > 1 µM
GI50 [21]: 0.0277 µM (active)
GI50 [22]: > 1 µM (active)
GI50 [23]: > 1 µM (active)
GI50 [24]: > 1 µM (active)
GI50 [25]: > 1 µM (active)
GI50 [26]: > 1 µM (active)
GI50 [27]: 0.948 µM (active)
GI50 [28]: > 1 µM (active)
GI50 [29]: > 1 µM (active)
GI50 [30]: > 1 µM (active)
GI50 [31]: > 1 µM (active)
GI50 [32]: > 1 µM (active)
GI50 [33]: > 1 µM (active)
GI50 [34]: > 1 µM (active)
GI50 [58]: > 1 µM (active)
GI50 [35]: 0.476 µM (active)
GI50 [36]: > 1 µM (active)
GI50 [37]: > 1 µM (active)
GI50 [39]: > 1 µM (active)
GI50 [40]: > 1 µM (active)
GI50 [42]: > 1 µM (active)
GI50 [44]: > 1 µM (active)
GI50 [46]: > 1 µM (active)
GI50 [47]: > 1 µM (active)
GI50 [48]: > 1 µM (active)
GI50 [49]: > 1 µM (active)
GI50 [50]: > 1 µM (active)
GI50 [51]: > 1 µM (active)
GI50 [52]: > 1 µM (active)
GI50 [53]: > 1 µM (active)
GI50 [54]: > 1 µM (active)
GI50 [55]: > 1 µM (active)
GI50 [56]: > 1 µM (active)
